Test: Pharmacokinetics of Compound A and Regorafenib in rats
Type: in vivo
Details: compared to Regorafenib

T1/2: prolonged T1/2
clearance: significant slower clearance
pharmacokinetic profile (FIG. 1, rats): better pharmacokinetic profile
exposure (oral administration route at equal dose): improved exposure
Structure (SMILES): [2H]C([2H])([2H])NC(=O)c1cc(Oc2ccc(NC(=O)Nc3ccc(Cl)c(C(F)(F)F)c3)c(F)c2)ccn1 [Compound A, 4-(4-(3-(4-chloro-3-(trifluoromethyl)phenyl)ureido)-3-fluorophenoxy)-N-d3-methylpicolinamide]

Reference: patent publication US20120077851A1, “Urea Derivatives as Kinase Inhibitors” (MEDOLUTION LIMITED, priority 2009, published 2012)
